Assay results published in the NIST ThermoML archive (doi:10.1021/je060469v).
± gives the expanded uncertainty stated by the source.

Columns and labels:
[1] = Liquid; for mass density: 298.15 K, 101.33 kPa
[2] = refractive index (Na D-line) (dimensionless); details: 298.15 K; 101.33 kPa; Liquid; Standard Abbe refractometry

mass density [1] [kg/m3]	vapor or sublimation pressure ([1]; 372.31 K) [kPa]	refractive index [2]	vapor or sublimation pressure ([1]; 419.67 K) [kPa]	vapor or sublimation pressure ([1]; 396.65 K) [kPa]	Compound	vapor or sublimation pressure ([1]; 367.78 K) [kPa]
892.16 ± 0.34	93.32 ± 1.9	1.3847 ± 0.0007			CCCC(=O)OC [methyl butanoate]	
879.47 ± 0.36		1.4048 ± 0.0007	93.32 ± 2.4		CCCCCC(=O)OC [methyl hexanoate]	
884.8 ± 0.35		1.3971 ± 0.0007		93.32 ± 2.4	CCCCC(=O)OC [methyl pentanoate]	

Compound	mass density [1] [kg/m3]	vapor or sublimation pressure ([1]; 372.31 K) [kPa]	refractive index [2]	vapor or sublimation pressure ([1]; 419.67 K) [kPa]	vapor or sublimation pressure ([1]; 396.65 K) [kPa]	vapor or sublimation pressure ([1]; 367.78 K) [kPa]
CCC#N [propanenitrile]	776.85 ± 0.51		1.36368 ± 0.00073			93.32 ± 1.9
